Data: ChEMBL document CHEMBL5233246, “CT1-3, a novel magnolol-sulforaphane hybrid suppresses tumorigenesis through inducing mitochondria-mediated apoptosis and inhibiting epithelial mesenchymal transition” (Eur J Med Chem, 2020)
pIC50: −log10 of the molar value. Activity calls are given as the source filed them. No cut-off for these calls is given here.

Tests used:
U-251 = test: Antiproliferative activity against human U-251 cells assessed as reduction in cell viability incubated for 24 hrs by CCK-8 assay; assay type: functional, cell-based; conditions: U-251, 24 h
[1] = Antiproliferative activity against human […] cells assessed as reduction in cell viability incubated for 24 hrs by CCK-8 assay; assay type: functional, cell-based
HONE1 cell line = test: Antiproliferative activity against human HONE1 cell line assessed as reduction in cell viability incubated for 24 hrs by CCK-8 assay; assay type: functional, cell-based; conditions: HONE1, 24 h
A549 = test: Antiproliferative activity against human A549 cells assessed as reduction in cell viability incubated for 24 hrs by CCK-8 assay; assay type: functional, cell-based; conditions: A549, 24 h
[2] = Antiproliferative activity against human NCI-H1688 cells assessed as reduction in cell viability incubated for 24 hrs by CCK-8 assay; assay type: functional, cell-based; conditions: NCI-H1688, 24 h
NCI-H1650 = test: Antiproliferative activity against human NCI-H1650 cells assessed as reduction in cell viability incubated for 24 hrs by CCK-8 assay; assay type: functional, cell-based; conditions: NCI-H1650, 24 h
NCI-H1299 = test: Antiproliferative activity against human NCI-H1299 cells assessed as reduction in cell viability incubated for 24 hrs by CCK-8 assay; assay type: functional, cell-based; conditions: NCI-H1299, 24 h
NCI-H460 [3] = test: Antiproliferative activity against human NCI-H460 cells assessed as reduction in cell viability incubated for 24 hrs by CCK-8 assay; assay type: functional, cell-based; conditions: NCI-H460, 24 h
HepG2 = test: Antiproliferative activity against human HepG2 cells assessed as reduction in cell viability incubated for 24 hrs by CCK-8 assay; assay type: functional, cell-based; conditions: HepG2, 24 h
MCF7 = test: Antiproliferative activity against human MCF7 cells assessed as reduction in cell viability incubated for 24 hrs by CCK-8 assay; assay type: functional, cell-based; conditions: MCF7, 24 h
MDA-MB-231 = test: Antiproliferative activity against human MDA-MB-231 cells assessed as reduction in cell viability incubated for 24 hrs by CCK-8 assay; assay type: functional, cell-based; conditions: MDA-MB-231, 24 h
AGS = test: Antiproliferative activity against human AGS cells assessed as reduction in cell viability incubated for 24 hrs by CCK-8 assay; assay type: functional, cell-based
SGC-7901 = test: Antiproliferative activity against human SGC-7901 cells assessed as reduction in cell viability incubated for 24 hrs by CCK-8 assay; assay type: functional, cell-based; conditions: SGC-7901, 24 h
LoVo = test: Antiproliferative activity against human LoVo cells assessed as reduction in cell viability incubated for 24 hrs by CCK-8 assay; assay type: functional, cell-based
SW480 = test: Antiproliferative activity against human SW480 cells assessed as reduction in cell viability incubated for 24 hrs by CCK-8 assay; assay type: functional, cell-based; conditions: SW480, 24 h
OVCAR-3 = test: Antiproliferative activity against human OVCAR-3 cells assessed as reduction in cell viability incubated for 24 hrs by CCK-8 assay; assay type: functional, cell-based; conditions: OVCAR-3, 24 h
NCI-H460 [4] = test: Cytotoxicity against human NCI-H460 cells assessed as reduction in cell viability at 10 uM incubated for 8 hr by CCK-8 assay; assay type: functional, cell-based
L02 = test: Cytotoxicity against human L02 cells assessed as reduction in cell viability incubated for 8 hrs by CCK-8 assay; assay type: toxicity, cell-based; conditions: l02, 8 h

With `C[S+]([O-])CCCCN=C=S` (stereo not drawn) [SULFORAPHANE] the pIC50 (U-251) was 4.65, the pIC50 [1] was 4.60 and the pIC50 (HONE1 cell line) was 4.72. It also gave a pIC50 (A549) of 4.70, a pIC50 [2] of 4.77 and a pIC50 (NCI-H1650) of 4.66. The pIC50 (NCI-H1299) was 4.94, the pIC50 (NCI-H460 [3]) was 4.67 and the pIC50 (HepG2) was 4.68. For the same compound, the pIC50 (MCF7) was 4.64, the pIC50 (MDA-MB-231) was 4.65 and the pIC50 (AGS) was 4.73. It also gave a pIC50 (SGC-7901) of 4.60, a pIC50 (LoVo) of 4.73 and a pIC50 (SW480) of 4.75. The pIC50 (OVCAR-3) was 4.73, the Activity (NCI-H460 [4]) was “inactive” and the Activity (L02) was “Non-Toxic”.
